The results in this text go back to BindingDB's records for patent US9776990 (Abbvie, 2017).

For this test, the target named is Bromodomain-containing protein 4 (Homo sapiens, UniProt O60885).
As a reminder, the Ki is the dissociation constant of the complex between target and ligand, obtained from inhibition or displacement. Higher therefore signals a looser hold on the target. As to `Cc1[nH]c(-c2cccc3ccccc23)c2c1C(=O)CCC2` [US9776990, Example 19], the Ki was found to be 19.7 µM.

In turn, `Cc1[nH]c(-c2ccccc2CN2C(=O)c3ccccc3C2=O)c2c1C(=O)CCC2` [US9776990, Example 26] displayed a Ki of 10.4 µM.

In turn, `Cc1[nH]c(-c2ccccc2Oc2ccccc2)c2c1C(=O)CC(CC(C)C)C2` (stereo not drawn) [US9776990, Example 68] gave a Ki of 22.2 µM.
